The target in series [1] is Lck (Homo sapiens, UniProt P06239). Put plainly: Human kinome profiling at 1.0 μM, Lck. The class given is biochemical. The settings on record: read-out: percent control, Lck.
For series [2], the system named is bleomycin-induced pulmonary fibrosis. Put plainly: Bleomycin-induced mouse pulmonary fibrosis model. The settings on record: 10 and 30 mg/kg QD, day 7-21. In kind it is in vivo.
Series [3] deals with ERK phosphorylation. Put plainly: pERK flow cytometry after CD3/28 crosslinking. The class given is cell-based. Particulars: Homo sapiens, mean of three donors. The protocol: PBMCs were pelleted (400×g at 4° C. for 5 minutes) and resuspended in RPMI+10% heat-inactivated fetal bovine serum (FBS) at 14.3×10^6 cells/mL; 70 μL (1×10^6 cells) were plated in a 96 well U bottom plate and incubated at 37° C. for 1 hour. […] CD3-biotin and CD28-biotin were prepared together at 10 μg/mL each, which is 10× the final concentration; 10 μL antibodies were added to the cells and incubated at 37° C. for 15 minutes. Avidin was prepared at 500 μg/mL, which is 10× the final concentration; 10 μL avidin were added to the cells and incubated at 37° C. for 5 minutes to induce TCR crosslinking. A total volume of 100 μL cells were transferred to 200 μL warm 2.4% paraformaldehyde (PFA) in deep well blocks. Pipetting was performed using a liquidator 96 to add reagents to the entire plate with uniform timing. Cells were fixed with PFA at 37° C. for 10 minutes. Cells were pelleted (1000× g for 5 minutes), and the plate was aspirated leaving approximately 100 μL residual volume. The plate was then vigorously vortexed for 10 seconds, and 1 mL −20° C. methanol was added to each well. Cells were stored at […] for approximately 1 month. […] Inhibition was measured by construction of a concentration response curve of the Log base 10 transformed values of the molar concentration of inhibitor. […]
(In general: Flow cytometry measures light scatter and fluorescence of single cells or particles in a stream.)

In series [4] the test system is human kinome. The series is described as follows: Human kinome profiling at 1.0 μM. In kind it is biochemical.
Series [5] concerns the target T1, ITK (Homo sapiens, UniProt Q08881).
T1 sequence (Q08881 1-620): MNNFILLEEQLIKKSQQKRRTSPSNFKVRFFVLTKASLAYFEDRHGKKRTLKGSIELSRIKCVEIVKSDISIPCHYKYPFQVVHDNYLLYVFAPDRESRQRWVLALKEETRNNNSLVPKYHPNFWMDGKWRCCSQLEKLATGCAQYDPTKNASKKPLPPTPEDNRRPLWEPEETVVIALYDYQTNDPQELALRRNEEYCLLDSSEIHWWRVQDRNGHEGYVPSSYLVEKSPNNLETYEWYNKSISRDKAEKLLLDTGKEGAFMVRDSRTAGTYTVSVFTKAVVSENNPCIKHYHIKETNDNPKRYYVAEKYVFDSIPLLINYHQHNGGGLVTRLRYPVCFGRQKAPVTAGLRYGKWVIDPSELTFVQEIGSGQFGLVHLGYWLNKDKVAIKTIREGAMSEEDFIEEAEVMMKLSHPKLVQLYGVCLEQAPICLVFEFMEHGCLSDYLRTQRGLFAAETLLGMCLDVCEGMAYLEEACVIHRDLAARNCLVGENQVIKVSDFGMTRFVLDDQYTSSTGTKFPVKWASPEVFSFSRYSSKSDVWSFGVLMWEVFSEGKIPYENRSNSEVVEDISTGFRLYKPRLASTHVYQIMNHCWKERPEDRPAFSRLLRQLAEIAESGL
Put plainly: ITK occupancy in patients at steady state. The class given is in vivo.

Series [6] deals with T1, ITK. The series is described as follows: Jump dilution assay. In kind it is binding. Further details: purchased Invitrogen. Particulars: for reversibility of ITK inhibition on dilution: dilution into competitive probe. The protocol: The assay format is similar to the Competitive Tracer-binding Assay and relies on the reversible binding of tracer 236 to recombinant tagged human ITK. […] The mixture was then filtered through a desalting column (Thermo Scientific, Zeba Spin Desalting Column, 40K MWCO) to remove unbound inhibitor. The assay was initiated immediately after the desalting step by diluting the eluate containing the inhibited kinase complex 50-fold into a solution of anti-tag antibody (2 nM final) and excess tracer 236 (40 nM final). Dissociation of inhibitor and binding of tracer was monitored immediately after assay initiation using an EnVision plate reader (excitation 340 nm, dual emission at 665 nm and 615 nm). Reagents including GST-tagged recombinant human ITK, Kinase tracer 236, Lanthascreen Eu-Anti-GST antibody and kinase buffer A were purchased from ThermoFisher Scientific/Invitrogen. Each data point represents the mean of technical triplicates. Equation 3 was fitted to the BMS-509744 data to obtain the rate constant using GraphPad Prism from which the half-life was calculated.

A short description of series [7]: Mouse pharmacokinetics after oral dosing. In kind it is in vivo.
In series [8] the target is ZAP-70 (Homo sapiens, UniProt P43403). The series is described as follows: Human kinome profiling at 1.0 μM, ZAP-70. In kind it is biochemical. The settings on record: read-out: percent control, ZAP-70.
In series [9] the test system is ZAP-70 phosphorylation. Put plainly: ZAP-70 phosphorylation in Jurkat cells. In kind it is cell-based, human. The settings on record: anti-CD3. The protocol:
Jurkat human acute T cell leukemia cell line (ATCC, TIB-152) was cultured in RPMI 1640 medium supplemented with Penicillin-Streptomycin (Gibco) and 10% fetal bovine serum (FBS) at 37° C. and 5% CO2. […] The cell pellet was resuspended in NP40 lysis buffer (Invitrogen) containing protease and phosphatase inhibitors cocktail (Cell Signaling Technology), incubated for 30 minutes on ice, and centrifuged at 15, 000×g for 10 minutes. The lysate supernatant from each condition containing 50 μg of total protein was resolved on an 8% Bis-Tris gel (Invitrogen) under reducing condition and transferred onto a nitrocellulose membrane (Invitrogen) using an iBlot2 gel transfer device. Unless specified otherwise, all reagents described above were purchased from Thermo Fisher Scientific. Membranes were blocked for 1 hour at room temperature and incubated overnight at 4° C. with primary antibodies (1:1000 dilution) in Odyssey blocking buffer (LI-COR) with 0.2% Tween 20. Membranes were washed 4 times (5 min each) in Tris-buffered saline, 0.10% Tween 20 and incubated with IRDye 800CW Anti-Rabbit IgG and IRDye 700CW Anti-Mouse IgG (LI-COR) secondary antibodies (1:20,000 dilution) for 1 hour at room temperature. After washes, membranes were imaged in the LI-COR Odyssey® Fc Imaging System. […]

Each structure is given as a SMILES string.

Lck, sequence (P06239 whole entry): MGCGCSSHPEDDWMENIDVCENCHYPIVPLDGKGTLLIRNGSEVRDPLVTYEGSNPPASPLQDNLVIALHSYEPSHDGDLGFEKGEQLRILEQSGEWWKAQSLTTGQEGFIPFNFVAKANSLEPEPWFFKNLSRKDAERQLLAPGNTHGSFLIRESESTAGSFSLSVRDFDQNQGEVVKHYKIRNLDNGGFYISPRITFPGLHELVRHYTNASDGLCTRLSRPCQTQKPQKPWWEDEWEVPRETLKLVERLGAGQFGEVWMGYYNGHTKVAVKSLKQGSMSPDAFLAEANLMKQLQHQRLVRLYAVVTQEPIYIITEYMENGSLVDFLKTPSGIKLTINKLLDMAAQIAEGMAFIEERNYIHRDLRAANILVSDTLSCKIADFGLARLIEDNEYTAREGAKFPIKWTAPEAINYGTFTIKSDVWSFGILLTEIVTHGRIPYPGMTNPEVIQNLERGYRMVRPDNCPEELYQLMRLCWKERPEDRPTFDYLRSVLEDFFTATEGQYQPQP
ZAP-70, sequence (P43403 whole entry): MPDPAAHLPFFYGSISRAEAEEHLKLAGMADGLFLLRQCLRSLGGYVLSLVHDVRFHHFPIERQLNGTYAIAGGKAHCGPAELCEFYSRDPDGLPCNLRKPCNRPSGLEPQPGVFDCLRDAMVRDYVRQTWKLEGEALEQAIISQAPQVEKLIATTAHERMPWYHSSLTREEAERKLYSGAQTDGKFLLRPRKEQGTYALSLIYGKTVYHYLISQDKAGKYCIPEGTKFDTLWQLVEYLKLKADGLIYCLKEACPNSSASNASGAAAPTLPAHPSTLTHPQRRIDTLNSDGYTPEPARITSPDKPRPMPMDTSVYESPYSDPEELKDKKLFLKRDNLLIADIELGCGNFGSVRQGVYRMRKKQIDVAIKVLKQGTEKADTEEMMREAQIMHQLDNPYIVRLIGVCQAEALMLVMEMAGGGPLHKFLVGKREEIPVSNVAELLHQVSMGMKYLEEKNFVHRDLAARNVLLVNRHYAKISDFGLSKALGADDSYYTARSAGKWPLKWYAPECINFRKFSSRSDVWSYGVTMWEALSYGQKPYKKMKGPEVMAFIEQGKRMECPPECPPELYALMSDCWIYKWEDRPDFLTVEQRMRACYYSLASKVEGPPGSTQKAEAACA

As a reminder, the IC50 is the concentration needed to halve the response being measured. What is called Tmax is the time at which the peak concentration occurs. What is called half-life is the time needed for the level to fall by half in the phase considered. `C=CC(=O)N1CCCN(C(=O)c2cc(Sc3cnc(NC(=O)C4CC4)s3)c(C)cc2OC)C[C@H]1C` [CPI-818]: the values for the remaining activity at 1 µM in series [1] and in series [8] were 89% and 59%, respectively. The BALF leukocytes result in series [2] is “reduced”. Further, the lung weight result in series [2] is reported as “reduced”. In addition, in [3], the IC50 was 39 nM. Also, the “number of kinases inhibited ≥65%” value in series [4] is given as “eight”. For the same molecule, in [5] (human, 400 mg BID and 600 mg BID, read-out: steady state trough ITK occupancy), the receptor occupancy at 400 mg was around 90%. For the same molecule, the “steady state peak ITK occupancy, mean” value in series [5] (patients, 100-600 mg BID) is “at least 90%”. The “persistence of blockade of tracer binding to ITK” value in [6] (after jump dilution) is given as “greater than 24 h”. In addition, the “reversibility of ITK inhibition on dilution” value in [6] is “did not dissociate upon dilution”; in series [6] (listed as CP-818) it was “irreversible”. Moreover, the Tmax in [7] (male, C57Bl/6, mouse, plasma, single 50 mg/kg PO) is 0.5 h. For the same molecule, the half-life in [7] (male, C57Bl/6, mouse, plasma, single 50 mg/kg PO, read-out: half-life in circulation (converted)) was 2.4 h. In addition, the oral bioavailability entry in series [7] (mouse, in vivo, po) is “orally bioavailable”. Further, in [7] (single 50 mg/kg PO, over first 8 h), the “decrease of plasma concentration” value is listed as 10 fold. Besides, the “phosphorylation of ZAP-70” value in series [9] is “but not ZAP-70”.

Source of the values: US20250213587A1, “ITK INHIBITORS FOR INCREASING TH1 CELL ACTIVITY” (Corvus Pharmaceuticals, Inc., priority 2022, published 2025).
